Laboratory results published in PMC5218480 (PLoS ONE, 2017).

System: MV-4-11 cells
Assay: Gene expression microarray analysis (Affymetrix PrimeView) and GSEA
Format: cell-based, human
Parameters: RFU PODN (11730768_x_at) / Fold change /veh PODN (11730768_x_at) / RFU LINC00158 (11744669_a_at) / Fold change /veh LINC00158 (11744669_a_at) / RFU DUSP10 (11751237_a_at) / Fold change /veh DUSP10 (11751237_a_at) / RFU ID3 (11757404_x_at) / Fold change /veh ID3 (11757404_x_at) / RFU PLEKHG5 (11737974_s_at) / Fold change /veh PLEKHG5 (11737974_s_at) / RFU LRRC4B (11730491_at) / Fold change /veh LRRC4B (11730491_at) / RFU GIMAP4 (11747438_a_at) / Fold change /veh GIMAP4 (11747438_a_at) / RFU KRT8 (11758183_x_at) / Fold change /veh KRT8 (11758183_x_at) / RFU CNN1 (11734310_a_at) / Fold change /veh CNN1 (11734310_a_at) / RFU VPS37D (11726825_at) / Fold change /veh VPS37D (11726825_at) / RFU C10orf10 (11716522_x_at) / Fold change /veh C10orf10 (11716522_x_at) / RFU KIR2DL2 /// KIR2DL4 /// KIR2DL5A /// KIR2DL5B /// KIR2DS1 /// KIR2DS2 /// KIR2DS3 /// KIR2DS4 /// KIR3DL3 /// KIR3DL3 /// KIR3DS1 (11738374_at) / Fold change /veh KIR2DL2 /// KIR2DL4 /// KIR2DL5A /// KIR2DL5B /// KIR2DS1 /// KIR2DS2 /// KIR2DS3 /// KIR2DS4 /// KIR3DL3 /// KIR3DL3 /// KIR3DS1 (11738374_at) / RFU C1QL1 (11718748_at) / Fold change /veh C1QL1 (11718748_at) / RFU TMPRSS4 (11747572_a_at) / Fold change /veh TMPRSS4 (11747572_a_at) / RFU HAMP (11756126_x_at) / Fold change /veh HAMP (11756126_x_at) / RFU RNFT2 (11725882_a_at) / Fold change /veh RNFT2 (11725882_a_at) / RFU NR4A2 (11747474_a_at) / Fold change /veh NR4A2 (11747474_a_at) / RFU ABCC12 (11746883_a_at) / Fold change /veh ABCC12 (11746883_a_at) / RFU TMEM136 (11760407_x_at) / Fold change /veh TMEM136 (11760407_x_at) / RFU CLDN22 /// WWC2 (11732394_at) / Fold change /veh CLDN22 /// WWC2 (11732394_at) / RFU HLA-DPB1 (11760878_x_at) / Fold change /veh HLA-DPB1 (11760878_x_at) / RFU SPINT1 (11716480_a_at) / Fold change /veh SPINT1 (11716480_a_at) / RFU GAP43 (11754022_s_at) / Fold change /veh GAP43 (11754022_s_at) / RFU A4GNT (11735810_at) / Fold change /veh A4GNT (11735810_at) / RFU PRB3 (11715151_x_at) / Fold change /veh PRB3 (11715151_x_at) / RFU TUBB4B (11761932_at) / Fold change /veh TUBB4B (11761932_at) / RFU CAPN14 (11732068_a_at) / Fold change /veh CAPN14 (11732068_a_at) / RFU TMCC2 (11721928_a_at) / Fold change /veh TMCC2 (11721928_a_at) / RFU IRGQ (11745062_a_at) / Fold change /veh IRGQ (11745062_a_at) / RFU FAM174B (11720279_a_at) / Fold change /veh FAM174B (11720279_a_at) / RFU TMPRSS4 (11748680_a_at) / Fold change /veh TMPRSS4 (11748680_a_at) / RFU FAM212B (11763350_a_at) / Fold change /veh FAM212B (11763350_a_at) / RFU PLEKHG5 (11743358_a_at) / Fold change /veh PLEKHG5 (11743358_a_at) / RFU ZSCAN30 (11745921_a_at) / Fold change /veh ZSCAN30 (11745921_a_at) / RFU CMKLR1 (11741424_a_at) / Fold change /veh CMKLR1 (11741424_a_at) / RFU LOC101060620 /// MAPK8IP1 (11723275_at) / Fold change /veh LOC101060620 /// MAPK8IP1 (11723275_at) / RFU SPTSSB (11747773_x_at) / Fold change /veh SPTSSB (11747773_x_at) / RFU PRSS12 (11739890_at) / Fold change /veh PRSS12 (11739890_at) / RFU BIN1 (11741810_x_at) / Fold change /veh BIN1 (11741810_x_at) / RFU WNT11 (11732464_a_at) / Fold change /veh WNT11 (11732464_a_at) / RFU C10orf10 (11716521_a_at) / Fold change /veh C10orf10 (11716521_a_at) / RFU C5orf56 (11738089_at) / Fold change /veh C5orf56 (11738089_at) / RFU CYB561 (11721691_x_at) / Fold change /veh CYB561 (11721691_x_at) / RFU ANKRD19P (11752326_a_at) / Fold change /veh ANKRD19P (11752326_a_at) / RFU OR2T12 /// OR2T33 /// OR2T8 (11738714_s_at) / Fold change /veh OR2T12 /// OR2T33 /// OR2T8 (11738714_s_at) / RFU VCAN (11748164_a_at) / Fold change /veh VCAN (11748164_a_at) / RFU JSRP1 (11732532_at) / Fold change /veh JSRP1 (11732532_at) / RFU KRTAP10-11 (11738290_x_at) / Fold change /veh KRTAP10-11 (11738290_x_at) / RFU MYO3A (11730013_a_at) / Fold change /veh MYO3A (11730013_a_at) / RFU EBF3 (11725865_a_at) / Fold change /veh EBF3 (11725865_a_at) / RFU CAMK2N1 (11719241_x_at) / Fold change /veh CAMK2N1 (11719241_x_at) / RFU C5orf56 (11738088_a_at) / Fold change /veh C5orf56 (11738088_a_at) / RFU OLFML3 (11715873_a_at) / Fold change /veh OLFML3 (11715873_a_at) / RFU LOC100653217 /// NTM (11731650_a_at) / Fold change /veh LOC100653217 /// NTM (11731650_a_at) / RFU MAPK11 (11762145_a_at) / Fold change /veh MAPK11 (11762145_a_at) / RFU FIZ1 (11724087_x_at) / Fold change /veh FIZ1 (11724087_x_at) / RFU OASL (11726364_x_at) / Fold change /veh OASL (11726364_x_at) / RFU SOX15 (11748057_x_at) / Fold change /veh SOX15 (11748057_x_at) / RFU CD79A (11719716_a_at) / Fold change /veh CD79A (11719716_a_at) / RFU HIST1H1D (11736915_at) / Fold change /veh HIST1H1D (11736915_at) / RFU CASKIN2 (11723855_a_at) / Fold change /veh CASKIN2 (11723855_a_at) / RFU LOC730098 (11760151_x_at) / Fold change /veh LOC730098 (11760151_x_at) / RFU OR4N2 (11742367_at) / Fold change /veh OR4N2 (11742367_at) / RFU PRRT2 (11749266_a_at) / Fold change /veh PRRT2 (11749266_a_at) / RFU SNX32 (11753110_a_at) / Fold change /veh SNX32 (11753110_a_at) / RFU CDHR5 (11726645_a_at) / Fold change /veh CDHR5 (11726645_a_at) / RFU RCAN1 (11760418_a_at) / Fold change /veh RCAN1 (11760418_a_at) / RFU FAM167A (11723789_a_at) / Fold change /veh FAM167A (11723789_a_at) / RFU FAM26E (11764081_at) / Fold change /veh FAM26E (11764081_at) / RFU ISYNA1 (11749810_s_at) / Fold change /veh ISYNA1 (11749810_s_at) / RFU ACY1 (11761880_at) / Fold change /veh ACY1 (11761880_at) / RFU 11764098_at / Fold change /veh 11764098_at / RFU SAMD14 (11745864_x_at) / Fold change /veh SAMD14 (11745864_x_at) / RFU NPB (11741838_a_at) / Fold change /veh NPB (11741838_a_at) / RFU TMPRSS6 (11731388_a_at) / Fold change /veh TMPRSS6 (11731388_a_at) / RFU KRTAP10-2 (11738614_at) / Fold change /veh KRTAP10-2 (11738614_at) / RFU ARHGAP8 /// PRR5-ARHGAP8 (11727945_x_at) / Fold change /veh ARHGAP8 /// PRR5-ARHGAP8 (11727945_x_at) / RFU KRTAP5-7 /// NADSYN1 (11734609_at) / Fold change /veh KRTAP5-7 /// NADSYN1 (11734609_at) / RFU RASL12 (11751679_a_at) / Fold change /veh RASL12 (11751679_a_at) / RFU CDKN2B (11736163_a_at) / Fold change /veh CDKN2B (11736163_a_at) / RFU PRF1 (11729649_at) / Fold change /veh PRF1 (11729649_at) / RFU, ZNF638 /// ZNF638-IT1 / Fold change vs veh, ZNF638 /// ZNF638-IT1 / RFU, PANK3 / Fold change vs veh, PANK3 / RFU, SH3YL1 / Fold change vs veh, SH3YL1 / RFU, ZEB2 / Fold change vs veh, ZEB2 / RFU, NRIP1 / Fold change vs veh, NRIP1 / RFU, PTTG1IP / Fold change vs veh, PTTG1IP / RFU, CAPN2 / Fold change vs veh, CAPN2 / RFU, MED14 / Fold change vs veh, MED14 / RFU, SNORA58 / Fold change vs veh, SNORA58 / RFU, C1orf63 / Fold change vs veh, C1orf63 / RFU, LRRFIP1 / Fold change vs veh, LRRFIP1 / RFU, NDUFAF7 / Fold change vs veh, NDUFAF7 / RFU, SLC12A2 / Fold change vs veh, SLC12A2 / RFU, IBTK / Fold change vs veh, IBTK / RFU, ESF1 / Fold change vs veh, ESF1 / Fold change vs veh, TMEM50B / RFU, TAOK1 / Fold change vs veh, TAOK1 / RFU, ACBD3 / Fold change vs veh, ACBD3 / RFU, TMA16 / Fold change vs veh, TMA16 / RFU, RWDD3 / Fold change vs veh, RWDD3 / RFU, BCAT1 / Fold change vs veh, BCAT1 / RFU, EDEM3 / Fold change vs veh, EDEM3 / RFU, TMEM33 / Fold change vs veh, TMEM33 / RFU, WDR75 / Fold change vs veh, WDR75 / RFU, AHCTF1 / Fold change vs veh, AHCTF1 / RFU, TFRC / Fold change vs veh, TFRC / RFU, ZDHHC17 / Fold change vs veh, ZDHHC17 / RFU, NOM1 / Fold change vs veh, NOM1 / RFU, ARL8B / Fold change vs veh, ARL8B / RFU, ZBTB11 / Fold change vs veh, ZBTB11 / RFU, TAMM41 / Fold change vs veh, TAMM41 / RFU, KIAA1704 /// LOC100996395 / Fold change vs veh, KIAA1704 /// LOC100996395 / RFU, ING1 / Fold change vs veh, ING1 / RFU, TRMT61B / Fold change vs veh, TRMT61B / RFU, FUBP3 / Fold change vs veh, FUBP3 / RFU, TP53 / Fold change vs veh, TP53 / RFU, TNKS2 / Fold change vs veh, TNKS2 / RFU, ZFP14 / Fold change vs veh, ZFP14 / RFU, ACTR2 / Fold change vs veh, ACTR2 / RFU, PPP3R1 / Fold change vs veh, PPP3R1 / RFU, PIK3R1 / Fold change vs veh, PIK3R1 / RFU, HNRNPA1 / Fold change vs veh, HNRNPA1 / RFU, RNF170 / Fold change vs veh, RNF170 / RFU, ZNF28 / Fold change vs veh, ZNF28 / RFU, RNGTT / Fold change vs veh, RNGTT / RFU, OGT / Fold change vs veh, OGT / RFU, BRD1 / Fold change vs veh, BRD1 / RFU, MARS / Fold change vs veh, MARS / RFU, ZNF655 / Fold change vs veh, ZNF655 / RFU, FAHD1 / Fold change vs veh, FAHD1 / RFU, BDP1 / Fold change vs veh, BDP1 / RFU, LRRCC1 / Fold change vs veh, LRRCC1 / RFU, ARID1A / Fold change vs veh, ARID1A / RFU, ZNF146 / Fold change vs veh, ZNF146 / RFU, ZNF330 / Fold change vs veh, ZNF330 / RFU, GPN3 / Fold change vs veh, GPN3 / RFU, C9orf123 / Fold change vs veh, C9orf123 / RFU, N4BP2L2 / Fold change vs veh, N4BP2L2 / RFU, ARFIP1 / Fold change vs veh, ARFIP1 / RFU, FAM179B / Fold change vs veh, FAM179B / RFU, BCL10 / Fold change vs veh, BCL10 / RFU, UHRF1BP1L / Fold change vs veh, UHRF1BP1L / RFU, BET1 / Fold change vs veh, BET1 / RFU, CNOT2 / Fold change vs veh, CNOT2 / RFU, ZNF268 / Fold change vs veh, ZNF268 / Fold change vs veh, ZNF507 / RFU, DGCR2 / Fold change vs veh, DGCR2 / RFU, WDSUB1 / Fold change vs veh, WDSUB1 / Fold change vs veh, HSP90B1 /// MIR3652 / RFU, ADSS / Fold change vs veh, ADSS / RFU, GK / Fold change vs veh, GK / RFU, ZNF148 / Fold change vs veh, ZNF148 / RFU, TAF9 / Fold change vs veh, TAF9 / RFU, SLC1A5 / Fold change vs veh, SLC1A5 / RFU, SLMO2 / Fold change vs veh, SLMO2 / RFU, ABCC4 / Fold change vs veh, ABCC4 / RFU, LOC101060439 /// RAP1B / Fold change vs veh, LOC101060439 /// RAP1B / RFU, RFX7 / Fold change vs veh, RFX7 / RFU, GTPBP10 / Fold change vs veh, GTPBP10 / RFU, CNEP1R1 / Fold change vs veh, CNEP1R1 / RFU, BIVM-ERCC5 /// ERCC5 / Fold change vs veh, BIVM-ERCC5 /// ERCC5 / RFU, ILF3 / Fold change vs veh, ILF3 / RFU 11762660_at / Fold change /veh 11762660_at / RFU VCAN (11757783_s_at) / Fold change /veh VCAN (11757783_s_at) / RFU DDX43 (11728927_at) / Fold change /veh DDX43 (11728927_at) / RFU KRT8 (11758188_x_at) / Fold change /veh KRT8 (11758188_x_at) / RFU NKD1 (11759106_at) / Fold change /veh NKD1 (11759106_at) / RFU SRD5A1 (11742802_a_at) / Fold change /veh SRD5A1 (11742802_a_at) / RFU TPSAB1 /// TPSB2 (11721975_s_at) / Fold change /veh TPSAB1 /// TPSB2 (11721975_s_at) / RFU GSTM3 (11746129_a_at) / Fold change /veh GSTM3 (11746129_a_at) / RFU IL23R (11737362_x_at) / Fold change /veh IL23R (11737362_x_at) / RFU TMEM51 (11727254_a_at) / Fold change /veh TMEM51 (11727254_a_at) / RFU PIWIL2 (11732686_x_at) / Fold change /veh PIWIL2 (11732686_x_at) / RFU ORM1 (11744905_x_at) / Fold change /veh ORM1 (11744905_x_at) / RFU CCDC152 (11743942_at) / Fold change /veh CCDC152 (11743942_at) / RFU ECM1 (11717891_a_at) / Fold change /veh ECM1 (11717891_a_at) / RFU IL23R (11748794_a_at) / Fold change /veh IL23R (11748794_a_at) / RFU TNFAIP8L3 (11732012_x_at) / Fold change /veh TNFAIP8L3 (11732012_x_at) / RFU MBOAT4 (11741988_at) / Fold change /veh MBOAT4 (11741988_at) / RFU 11764193_at / Fold change /veh 11764193_at / RFU TMEM53 (11763286_at) / Fold change /veh TMEM53 (11763286_at) / RFU MAGEB2 (11727129_at) / Fold change /veh MAGEB2 (11727129_at) / RFU TMEM200A (11744735_a_at) / Fold change /veh TMEM200A (11744735_a_at) / RFU CCDC152 (11751479_a_at) / Fold change /veh CCDC152 (11751479_a_at) / RFU FAM211A (11726209_a_at) / Fold change /veh FAM211A (11726209_a_at) / RFU RGS16 (11746705_a_at) / Fold change /veh RGS16 (11746705_a_at) / RFU VCAN (11755009_s_at) / Fold change /veh VCAN (11755009_s_at) / RFU RHOB (11743442_s_at) / Fold change /veh RHOB (11743442_s_at) / RFU RGS16 (11720943_a_at) / Fold change /veh RGS16 (11720943_a_at) / RFU RGS16 (11720944_at) / Fold change /veh RGS16 (11720944_at) / RFU, VPS4B / Fold change vs veh, VPS4B / RFU, CREB1 / Fold change vs veh, CREB1 / RFU, DNAJC13 / Fold change vs veh, DNAJC13 / RFU, GNAQ / Fold change vs veh, GNAQ / RFU, CDK5R1 / Fold change vs veh, CDK5R1 / RFU, ZRANB3 / Fold change vs veh, ZRANB3 / RFU, CUL4A / Fold change vs veh, CUL4A / RFU, CCNY / Fold change vs veh, CCNY / RFU, UFL1 / Fold change vs veh, UFL1 / RFU, COG3 / Fold change vs veh, COG3 / RFU, DIAPH2 / Fold change vs veh, DIAPH2 / RFU, SKA2 / Fold change vs veh, SKA2 / RFU, AFF3 / Fold change vs veh, AFF3 / RFU, LMF1 / Fold change vs veh, LMF1 / RFU, IPO11 / Fold change vs veh, IPO11 / RFU, DFFB / Fold change vs veh, DFFB / RFU, FOXP1 / Fold change vs veh, FOXP1 / RFU, CARD8 / Fold change vs veh, CARD8 / RFU, STRN3 / Fold change vs veh, STRN3 / RFU, ADK / Fold change vs veh, ADK / RFU, RASSF2 / Fold change vs veh, RASSF2 / RFU, WIPF1 / Fold change vs veh, WIPF1 / RFU, LARP1B / Fold change vs veh, LARP1B / RFU, RASA1 / Fold change vs veh, RASA1 / RFU, RB1 / Fold change vs veh, RB1 / RFU, PPFIA1 / Fold change vs veh, PPFIA1 / RFU, MAT2A / Fold change vs veh, MAT2A / RFU, CCT5 / Fold change vs veh, CCT5 / RFU, WDR92 / Fold change vs veh, WDR92 / RFU, CUX1 / Fold change vs veh, CUX1 / RFU, TTC7A / Fold change vs veh, TTC7A / RFU, TMEM135 / Fold change vs veh, TMEM135 / RFU, DEPTOR / Fold change vs veh, DEPTOR / RFU, CPM / Fold change vs veh, CPM / RFU, DNAJB6 / Fold change vs veh, DNAJB6 / RFU, CACNA2D3 / Fold change vs veh, CACNA2D3 / RFU, DTX4 / Fold change vs veh, DTX4 / RFU, TFCP2 / Fold change vs veh, TFCP2 / RFU, GMCL1 /// GMCL1P1 / Fold change vs veh, GMCL1 /// GMCL1P1 / RFU, AEBP2 / Fold change vs veh, AEBP2 / RFU, SNHG1 /// SNORD22 /// SNORD25 /// SNORD26 /// SNORD27 /// SNORD28 /// SNORD29 /// SNORD31 / Fold change vs veh, SNHG1 /// SNORD22 /// SNORD25 /// SNORD26 /// SNORD27 /// SNORD28 /// SNORD29 /// SNORD31 / Fold change (Aza/veh), C12orf56 (ProbeSet 11735607_a_at) / Fold change (ACY-1035/veh), C12orf56 (ProbeSet 11735607_a_at) / Fold change (Aza/veh), FGFR1OP (ProbeSet 11751329_s_at) / Fold change (ACY-1035/veh), FGFR1OP (ProbeSet 11751329_s_at) / Fold change (Aza/veh), VPS36 (ProbeSet 11739960_a_at) / Fold change (ACY-1035/veh), VPS36 (ProbeSet 11739960_a_at) / RFU SYPL1 (11715823_x_at) / Fold change /veh SYPL1 (11715823_x_at) / RFU IGFBP7 (11715501_s_at) / Fold change /veh IGFBP7 (11715501_s_at) / RFU REEP3 (11722064_at) / Fold change /veh REEP3 (11722064_at) / RFU IGLL1 (11728026_x_at) / Fold change /veh IGLL1 (11728026_x_at): dose or concentration left out as unconfirmed
Settings: ProbeSet 11732277_a_at; LIST D

## Nc1ccc(-c2cccs2)cc1NC(=O)c1ccc2c(c1)cc(C1CC1)n2CCN1CCOCC1 [ACY-1035]
  RFU, FOXP1: 575.26 RFU
